In patent US20240173401A1, “Compositions and Methods to Enhance Therapeutic Efficacy of Cancer Therapies” (Wisconsin Alumni Research Foundation, priority 2022, published 2024):

Assays:
CD4 and CD8 T cells [1] = experiment: Co-culture of MPL stimulated macrophages with CD4 and/or CD8 T cells, flow cytometry; format: cell-based, mouse
Experimental: Bone marrow derived macrophages were plated in 12 well plates (200,000 cells per well) containing Alpha MEM supplemented with 120 ng/mL M-CSF and treated with either 100 ng/mL MPL or PBS control. After 24 hours either CD4, CD8 or both were added (500,000 cells per well) to the culture. CD4 and CD8 cells were harvested 24 hours later and analyzed for activation markers using flow cytometry.
Flow cytometry was performed as previously described (65), using fluorescent beads (UltraComp Beads eBeads, 176 Invitrogen, #01-2222-42) to determine compensation and fluorescence minus one (FMO) methodology to determine gating. For in vivo analysis, tumors and tumor draining lymph nodes were harvested and gently dissociated. For in vitro analysis, nonadherent CD4 and CD8 cells were collected from culture plates and washed with PBS twice. In either case total cells were treated CD16/32 antibody (BioLegend) to prevent non-specific binding. Live cell staining was performed using Ghost Red Dye 780 (Tonbo Biosciences) according to manufacturer's instruction. After live-dead staining, a single cell suspension was labeled with the surface antibodies at 4° C. for 60 min and washed three times using flow buffer (2% FBS+2 mM EDTA in PBS). For intracellular staining, the cells were fixed and stained for internal markers with permeabilization solution according to manufacturer's instructions (BD Cytofix/Cytoperm™). Flow cytometry was performed using an Attune NxT Flow Cytometer (ThermoFisher). Data was analyzed using FlowJo Software.
We hypothesized that MPL may favorably polarize and activate T cells through direct activation of macrophages. To test this, we co-cultured CD8 cells with macrophages stimulated with MPL or vehicle control (PBS) and quantified CD69 expression as a marker of activation. […] To investigate CD4 polarization we co-cultured CD4 cells with macrophages stimulated with MPL or PBS. […] This may partially explain the loss of CD69 expression in CD8 T cells when CD4 T cells were added to the co-culture. We observed similar trends in CXCR3 and CXCR4 expression on CD4+cells, as well as increase in regulatory T cell percentage when CD8 T cells were added to the co-culture (FIGS. 4M-40).

B cells = B cells cultured in vitro, activation markers by qPCR; format: cell-based, mouse
Experimental: FIGS. 6A-6F. Radiation downregulates TLR4 expression on macrophages and MHC-IT expression on B16 tumor cells and cytotoxic CD4 cells are not generated by combination therapy but B cells are modestly activated with radiation but not MPL or serum. Macrophages cultured in vitro were treated with PBS, anti-CTLA-4 (C4, 5 μg), radiation (RT, 12 Gy) or RT+C4 and expression of TLR4 was quantified using flow cytometry 24 hours following treatment (6A). B16 melanoma cells cultured in vitro were treated with PBS or radiation (RT, 12 Gy) and expression of MHC-II was quantified using flow cytometry 3 days following treatment (6B). B16 tumors were treated with PBS or RT+C4+MPL and expression of MHC-II was quantified using flow cytometry 15 days following treatment (6C). CD4 cells were also harvested and co-cultured with B16 cells that had received either 0 Gy or 12 Gy of RT 7 days prior to coculture and tumor cell killing was quantified using Annexin V staining (6D). B cells cultured in vitro were treated with either PBS, MPL (100 μg), serum from disease free mice, or MPL+serum and activation markers were quantified using qPCR (6E). B cells cultured in vitro were treated with either PBS, C4 (5 μg), RT (12 Gy), or RT+C4 and activation markers were quantified using qPCR (6F). […]

B78 melanoma [2] = experiment: B78 melanoma flank tumor model (tumor growth, survival, complete response, rechallenge); settings: RT 12 Gy day 1, C4 200 μg IP days 3, 6, 9, MPL 20 μg IT days 5, 7, 9
Experimental: Tumor bearing mice received either RT (12 Gy, day 1), RT+anti-CTLA4 (C4, day 3, 6, 9), MPL (20 μg IT injection days 5, 7, 9), RT+C4+MPL, or PBS control.
For our studies, tumors were established intradermally in mice, external beam radiation was delivered, PBS or anti-CTLA-4 were injected intraperitoneally, PBS or MPL were injected intratumorally, and tumor growth and overall survival were recorded. Serum was collected and analyzed for the presence and characterization of anti-tumor antibodies, and the tumor and tumor draining lymph node were collected for immune infiltrate analysis. Mice were randomized to experimental groups/treatment the day before treatment initiation. Generally, experimental groups consisted of at least 5-6 mice, but in some experiments up to 10 were used.
Mice were housed and treated under a protocol (protocol number M005670) approved by the Institutional Animal Care and Use Committee (IACUC) at the University of Wisconsin-Madison. Female C57BL/6, FcγR −/− (FcγR deficient C57BL/6.129P2-Fcer1gtm1Rav N12), and male FVBn mice were purchased at age 6 to 8 weeks from Taconic. Female TBET −/− (B6.129S6-Tbx21tm1Glm/J strain #:004648) were purchased from The Jackson Laboratory. […] Tumor size was determined using calipers and volume approximated as (width2×length)/2. […]

B78 melanoma [3] = experiment: Tumor cytokine multiplex immunoassay; format: in vivo, mouse; settings: tumor lysate, day 15
Experimental: At day 15, tumors were harvested and weighed. Tumor samples (5 μL/mg) were lysed in 20% Cell Lysis Buffer with PMSF (Cell Signaling Technology) and supplemented with Halt Protease and Phosphatase Inhibitor Cocktail (Thermo Scientific). Each tumor was homogenized in bead beater tubes, and the lysate was stored at −80° C. The concentration of 32 cytokines and chemokines in the tumor lysates (MILLIPLEX MAP Mouse Cytokine/Chemokine Magnetic Bead Panel, Millipore) were determined by a multiplex immunoassay following manufacturer's instructions. The MAGPIX System (Millipore) was used to read the multiplex plate. Concentrations were determined using a standard curve and their respective median fluorescence intensity (MFI) readings (Milliplex Analyst, Millipore). The data underwent log and […] transformation followed by unbiased hierarchical clustering.
We next profiled the cytokine repertoire within the irradiated tumor immune microenvironment following MPL treatment, focusing on TLR4 activation, Th polarization, and macrophage polarization given our tumor immune cell infiltration findings.

[4] = test system: bone marrow derived macrophages; experiment: Bone marrow derived macrophage monoculture, qPCR of polarization and activation markers; format: cell-based, mouse; settings: for Arg1 and Nos2 expression: MPL 100 ng/mL
Experimental: Macrophages were isolated from freshly harvested bone marrow as previously described (95-97). Briefly, isolated tibias were flushed with RMPI media and flowthrough was collected and centrifuged. The cell pellet was resuspended in RBC lysis buffer (Biolegend Cat #420302) and filtered (70 μM). Filtered cells were plated in non-tissue culture treated plates in Minimum Essential Medium Eagle-Alpha Modification (Alpha MEM) with Nucleosides supplemented with 10% FBS and 30 ng/mL M-CSF (Biolegend Cat #576408). After 24 hours, the culture supernatant containing macrophages was harvested and plated in tissue culture treated plates in Alpha MEM supplemented with 10% FBS and 120 ng/mL M-CSF.
To determine direct effects of MPL on macrophages, CD4, and CD8 T cells, freshly isolated cells were cultured in 6-well plates containing Alpha MEM media (supplemented with 120 ng/mL M-CSF in the case of macrophages) in the presence of increasing amounts of MPL (5, 20, 100, and 500 ng/mL). After 24 hours cells were harvested, and RNA was isolated for analysis via qPCR.
Cells treated in vitro with MPL, RT, or the combination were washed with cold PBS, TRIzol™ reagent (ThermoFisher Scientific Cat #15596026) was added to the plate, and the cells were collected via scraping over ice. For analysis of tumor tissue, tumors were harvested, and samples were homogenized in TRIzol using a Bead Mill Homogenizer (Bead Ruptor Elite, Omni International Cat #19-040E). For in vitro and in vivo samples, total RNA was extracted using RNeasy Mini Kit (QIAGEN, Germany, Cat #74106) according to the manufacturer's instructions. Extracted RNA was subjected to complementary cDNA synthesis using QuantiTect Reverse Transcription Kit (QIAGEN, Germany, Cat #205314) according to the manufacturer's instructions. Quantitative polymerase chain reaction (qRT-PCR) was performed using Taqman Fast Advanced qPCR Master Mix. Thermal cycling conditions (Quantstudio 6, Applied Biosystems) included the UDG activation at 50° C. for 2 min, followed by Dual-Lock™ DNA polymerase activation stage at 95SC for 2 m followed by 40 cycles of each PCR step (denaturation) 95° C. for is and (annealing/extension) 60° C. for 20s. A melt curve analysis was done to ensure specificity of the corresponding qRT-PCR reactions. For data analysis, the Ct values were exported to an Excel file, and fold change normalized to untreated control samples was calculated using the ΔΔCt method. Hprt, was used as endogenous controls. A complete list of Taqman probes is included as Table 1.
We cultured bone marrow derived macrophages in the presence of increasing amounts of MPL and using qPCR quantified the expression of Arg1 and Nos2, markers of M2 and M1 macrophages, respectively (59).
Macrophages are one of the least sensitive immune cell populations to radiation induced cell death (62). Tumor-associated macrophage populations that receive radiation in this regimen likely survive and are subsequently exposed to MPL delivered intratumorally as part of our treatment strategy. To test whether RT can synergize with MPL to further increase activation of macrophages, we delivered 12 Gy of RT to macrophages in culture and immediately replaced the growth media with fresh media containing 100 ng/mL of MPL, and 24 hours later harvested cells for analysis.

[5] = test system: bone marrow derived macrophages; experiment: Co-culture of macrophages with tumor cells with or without serum, qPCR; format: cell-based, mouse; settings: MPL 100 ng/mL
Experimental: For co-culture with tumor cells, bone marrow derived macrophages (harvested from wild type or Fcγ receptor deficient C57BL/6 mice) were plated in 6 well plates (500,000 cells per well) containing Alpha MEM supplemented with 120 ng/mL M-CSF and treated with either 100 ng/ML MPL or PBS control. After 24 hours either B78 melanoma or Myc-CaP cells were added (200,000 cells per well). To test whether serum derived anti-tumor antibodies can activate macrophages, 5 μL of serum obtained from mice bearing B78 tumors rendered disease free was also added to the co-culture. After 24 hours cells were harvested and analyzed for polarization and activation markers using qPCR.
(§1) Cells treated in vitro with MPL, RT, or the combination were washed with cold PBS, TRIzol™ reagent (ThermoFisher Scientific Cat #15596026) was added to the plate, and the cells were collected via scraping over ice. […] Extracted RNA was subjected to complementary cDNA synthesis using QuantiTect Reverse Transcription Kit (QIAGEN, Germany, Cat #205314) according to the manufacturer's instructions. Quantitative polymerase chain reaction (qRT-PCR) was performed using Taqman Fast Advanced qPCR Master Mix. […] For data analysis, the Ct values were exported to an Excel file, and fold change normalized to untreated control samples was calculated using the ΔΔCt method. […]

CD4 and CD8 T cells [6] = experiment: CD4 and CD8 T cell monoculture with MPL, qPCR; format: cell-based, mouse; settings: MPL 5-500 ng/mL, 24 hours
Experimental: CD4 and CD8 T cells were isolated from freshly harvested spleens of naïve mice. Spleens were homogenized, filtered (70 μM), and centrifuged. The cell pellet was resuspended in RBC lysis buffer and filtered (70 μM). CD4 and CD8 cells were sorted from total splenocytes using MACS column sorting (Miltenyi Biotec CD8a Cat #130-104-075, CD4 Cat #130-104-454) per manufacturer's instructions.
To determine direct effects of MPL on macrophages, CD4, and CD8 T cells, freshly isolated cells were cultured in 6-well plates containing Alpha MEM media (supplemented with 120 ng/mL M-CSF in the case of macrophages) in the presence of increasing amounts of MPL (5, 20, 100, and 500 ng/mL). […]
as §1

[7] = CD4 co-cultured with MPL stimulated macrophages

## monophosphoryl lipid A [MPL]
CD4 and CD8 T cells [1]; [7]
  CXCR3 expression in CD4 cells: significant increase
  CXCR4 expression in CD4 cells: decrease
  percentage of regulatory T cells (CD4+CD25+FOXP3+): significant increase
CD4 and CD8 T cells [1]; CD8 co-cultured with macrophages stimulated with 100 ng/mL MPL, vs monoculture or unstimulated macrophages
  CD69 expression on CD8 T cells: significantly increased
CD4 and CD8 T cells [1]; MPL stimulated macrophages, CD4 cells added to the culture
  CD69 expression on CD8 cells: no longer observed an increase
B cells
  B cell activation: no increase in B cell activation
B78 melanoma [2]
  median survival: 31 days
B78 melanoma [3]
  Macrophage Inflammatory Protein 2 (MIP2, CXCL2): significant increases
  keratinocytes-derived chemokine (KC, CXCL1): significant increases
[4]; 12 Gy RT then 100 ng/mL MPL, 24 hours, addition of radiation to the MPL
  Fcγ receptor expression: further increased expression of these Fcγ receptors
[4]; 12 Gy RT then 100 ng/mL MPL, 24 hours, compared to MPL treatment alone
  expression of Ifnβ1 and Nos2: further increased
[4]; FcγR −/− macrophages in monoculture
  Arg1 and Nos2 expression: significant increases in Arg1 and Nos2 expression
[4]; at the 100 and 200 ng/ml doses
  Nos2 expression relative to Arg1: significantly greater expression of Nos2 than Arg1
[4]; increasing amounts of MPL (5, 20, 100, 500 ng/mL), 24 hours
  Arg1 and Nos2 expression (qPCR): dose dependent increases in both Arg1 and Nos2
[4]; increasing amounts of MPL, 24 hours
  pro-inflammatory compared to anti-inflammatory cytokine expression: favoring expression of pro-inflammatory cytokines
[4]; wild type macrophages in monoculture, 24 hours
  Arg1 and Nos2 expression: significant increases in Arg1 and Nos2 expression
[5]; FcγR −/− macrophages co-cultured with B78 cells
  Arg1 and Nos2 expression: significant increase in expression of Nos2 but not Arg1
[5]; wild type macrophages co-cultured with B78 cells
  Arg1 and Nos2 expression: significant increase in expression of Nos2 but not Arg1
CD4 and CD8 T cells [6]
  Cxcr3 and Cxcr4 expression in naïve splenic CD4 T cells: minimal changes
  expression of pro-inflammatory cytokines in CD4 and CD8 cells: minimal increases
